Assay results reported in patent US20220184083A1, “USE OF AN AGENT CAPABLE OF INHIBITING THE ACTIVATION OF MAIT CELLS FOR THE TREATMENT OF OBESITY AND OBESITY-RELATED DISORDERS” (INSERM (INSTITUT NATIONAL DE LA SANTÉ ET DE LA RECHERCH …, priority 2019, published 2022).

How the values were obtained:
Format in all cases: in vivo
[1] = test system: visceral adipose tissue macrophages; assay: Frequency of M1 and M2 macrophages in visceral adipose tissue; conditions: Vαl9+/− mice, treated vs non-treated
Excerpt: FIG. 4: Frequency of MI-macrophages (CD206−CD11c+) and M2-macrophages (CD206+CD11c−) among total macrophages and M1/M2 ratio in visceral adipose tissue from Vαl9+/− Ac-6-FP treated mice and their controls.

Vαl9^+/− mice fed HFD = assay: ITT, OGTT and weight gain in Vαl9+/− mice on high fat diet treated with Ac-6-FP
Excerpt: FIG. 2: Ac-6-FP treatment during HFD improved metabolic parameters. Vαl9^+/− mice fed during 6 weeks of HFD were then giving water containing 50 nm/ml of Ac-6-FP (Acetyl-6-formylpterin) (n=8) or PBS (n=7) for 8 weeks and IP injected, twice a week, 50 nm of Ac-6-FP or PBS. (A) ITT and OGTT in Vαl9^+/− Ac-6-FP-treated mice and Vαl9^+/− control mice. (B) Percentage of weight gain of Ac-6-FP-treated Vαl9^+/− mice and Vαl9^+/− control mice.

MAIT cells = assay: Intracellular staining of MAIT cells for IL-17A in ileum and visceral adipose tissue; conditions: Vα19+/− mice, Ac-6-FP treated vs control (PBS)
Excerpt: FIG. 3: Intra cellular staining of MAIT cells for IL-17A. Frequency of IL-17A positive MAIT cells in ileum and visceral adipose tissue from Vαl9+/− control (PBS) and Vαl9+/− Ac-6-FP treated mice.

MR1−/− mice = assay: ITT and OGTT at 12 weeks of HFD in MR1−/− mice treated with Ac-6-FP; conditions: Ac-6-FP treated vs controls
Excerpt: FIG. 5: Insulin Tolerance Test (ITT) and Oral Glucose Tolerance Test (OGTT) at 12 weeks of High Fat Diet (HFD) in MR1−/− Ac-6-FP treated mice and their respective controls.

`CC(=O)Nc1nc2ncc(C=O)nc2c(=O)[nH]1` [Ac-6-FP, acetyl-6-formylpterin] was tested, and the “frequency of M1-like macrophages (pro-inflammatory, CD206−CD11c+)” value [1] was “decreased frequency”, the “frequency of M2-like macrophages (anti-inflammatory, CD206+CD11c−)” value [1] was “increased frequency” and the insulin sensitivity (Vαl9^+/− mice fed HFD; Ac-6-FP treatment during high fat diet (HFD), obese mice) was “improved”. For the same compound, the “metabolic parameters (ITT, OGTT, percentage of weight gain)” value (Vαl9^+/− mice fed HFD; Vαl9+/− mice, 6 weeks HFD, then water containing 50 nm/ml Ac-6-FP for 8 weeks plus IP 50 nm twice a week, vs PBS) was “improved”, the “production of IL-17A by MAIT cells” value (MAIT cells; ileum) was “decreased production” and the “production of IL-17A by MAIT cells” value (MAIT cells; visceral adipose tissue) was “decreased production”. The “glucose tolerance (OGTT)” value (MR1−/− mice) was “did not have any effect” and the “insulin sensitivity (ITT)” value (MR1−/− mice) was “did not have any effect”.
